# Source: patent US8415469B2, “Compounds and methods for kinase modulation, and indications therefor” (Plexxikon Inc., priority 2005, dated 2013)
# How the values were obtained:
# Format in all cases: biochemical
# [1] = molecular target: T1, IKK beta (Homo sapiens, UniProt O14920); assay: AlphaScreen kinase assay, IKK beta; settings: read-out: IC50, activity toward kinase IKK beta
# T1 sequence (O14920 1-756): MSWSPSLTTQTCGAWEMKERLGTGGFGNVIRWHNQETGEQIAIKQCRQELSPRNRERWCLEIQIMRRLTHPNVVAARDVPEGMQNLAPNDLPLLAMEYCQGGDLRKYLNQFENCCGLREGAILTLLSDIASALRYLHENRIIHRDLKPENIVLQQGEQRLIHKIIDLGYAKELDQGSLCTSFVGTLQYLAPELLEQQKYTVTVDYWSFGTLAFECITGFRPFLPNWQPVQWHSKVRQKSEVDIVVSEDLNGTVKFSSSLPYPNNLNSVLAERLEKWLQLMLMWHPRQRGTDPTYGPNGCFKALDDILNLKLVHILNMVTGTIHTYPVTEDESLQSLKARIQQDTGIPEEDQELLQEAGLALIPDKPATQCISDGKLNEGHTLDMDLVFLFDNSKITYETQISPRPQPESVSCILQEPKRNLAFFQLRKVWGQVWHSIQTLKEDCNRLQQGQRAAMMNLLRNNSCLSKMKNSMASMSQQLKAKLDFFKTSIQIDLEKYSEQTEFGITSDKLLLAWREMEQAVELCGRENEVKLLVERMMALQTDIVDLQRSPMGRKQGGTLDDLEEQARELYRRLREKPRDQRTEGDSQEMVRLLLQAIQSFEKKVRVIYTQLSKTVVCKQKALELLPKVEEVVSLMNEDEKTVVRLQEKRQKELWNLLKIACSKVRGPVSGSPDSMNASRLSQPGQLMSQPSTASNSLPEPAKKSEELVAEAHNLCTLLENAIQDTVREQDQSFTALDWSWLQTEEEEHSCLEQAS
# [2] = molecular target: T2, Jak3 (Homo sapiens, UniProt P52333); assay: AlphaScreen kinase assay, Jak3; settings: read-out: IC50, activity toward kinase Jak3
# T2 sequence (P52333 1-1124): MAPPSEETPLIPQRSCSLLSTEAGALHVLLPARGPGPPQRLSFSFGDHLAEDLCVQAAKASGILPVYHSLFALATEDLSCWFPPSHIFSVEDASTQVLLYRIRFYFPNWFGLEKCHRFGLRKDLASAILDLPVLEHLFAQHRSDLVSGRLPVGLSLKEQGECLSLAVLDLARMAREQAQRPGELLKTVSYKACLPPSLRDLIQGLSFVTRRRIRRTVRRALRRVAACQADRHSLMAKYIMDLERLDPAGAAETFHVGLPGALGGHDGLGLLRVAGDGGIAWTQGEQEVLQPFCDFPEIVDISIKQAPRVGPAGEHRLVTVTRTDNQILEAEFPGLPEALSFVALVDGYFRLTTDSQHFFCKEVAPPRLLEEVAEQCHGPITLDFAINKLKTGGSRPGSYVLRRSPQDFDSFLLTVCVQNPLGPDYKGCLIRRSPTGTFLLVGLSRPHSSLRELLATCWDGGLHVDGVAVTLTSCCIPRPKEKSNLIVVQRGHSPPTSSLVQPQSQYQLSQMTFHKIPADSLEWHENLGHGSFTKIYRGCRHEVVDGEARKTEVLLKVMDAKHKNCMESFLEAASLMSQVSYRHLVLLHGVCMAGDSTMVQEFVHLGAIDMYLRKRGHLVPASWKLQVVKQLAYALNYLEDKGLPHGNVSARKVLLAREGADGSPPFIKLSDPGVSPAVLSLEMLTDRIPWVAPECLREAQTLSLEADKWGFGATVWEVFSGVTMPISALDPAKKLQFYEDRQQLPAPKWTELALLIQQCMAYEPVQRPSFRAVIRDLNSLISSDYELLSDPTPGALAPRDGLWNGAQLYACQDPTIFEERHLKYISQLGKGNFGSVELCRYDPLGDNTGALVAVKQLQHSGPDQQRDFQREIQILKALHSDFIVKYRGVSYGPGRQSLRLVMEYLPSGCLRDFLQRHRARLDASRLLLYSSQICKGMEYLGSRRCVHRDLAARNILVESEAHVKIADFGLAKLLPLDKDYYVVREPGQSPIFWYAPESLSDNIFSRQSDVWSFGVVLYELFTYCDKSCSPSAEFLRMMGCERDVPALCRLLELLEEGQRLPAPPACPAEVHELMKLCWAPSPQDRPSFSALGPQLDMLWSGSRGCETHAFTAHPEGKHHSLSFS
# Excerpt: (§1) AlphaScreen assay was used to screen additional kinases. The assay is similarly dependent on the phosphorylation of a peptide substrate. In this assay, an antibody that recognizes phosphorylated substrate is bound to an acceptor bead. The peptide substrate is attached to biotin, which binds to a donor head that contains streptavidin. Thus phosphorylated substrate is bound by antibody and streptavidin, bringing the donor and acceptor heads into close proximity when kinase is not inhibited. The donor produces singlet oxygen which results in emission from the acceptor when they are in close proximity. Conversely, when kinase is inhibited, the donor and acceptor beads are not associated and the emission from the acceptor is reduced.
# (§2) AlphaScreen assays were done using compounds dissolved in DMSO to a concentration of 20 mM. The compounds were diluted accordingly to the desired final concentrations in each sample well, using 1:3 serial dilution for a total of 8 concentration points.
# [3] = molecular target: IGF1R (Homo sapiens, UniProt P08069); assay: AlphaScreen kinase assay, IGF1R; settings: read-out: IC50, activity toward kinase IGF1R
# IGF1R, sequence (P08069 31-1367): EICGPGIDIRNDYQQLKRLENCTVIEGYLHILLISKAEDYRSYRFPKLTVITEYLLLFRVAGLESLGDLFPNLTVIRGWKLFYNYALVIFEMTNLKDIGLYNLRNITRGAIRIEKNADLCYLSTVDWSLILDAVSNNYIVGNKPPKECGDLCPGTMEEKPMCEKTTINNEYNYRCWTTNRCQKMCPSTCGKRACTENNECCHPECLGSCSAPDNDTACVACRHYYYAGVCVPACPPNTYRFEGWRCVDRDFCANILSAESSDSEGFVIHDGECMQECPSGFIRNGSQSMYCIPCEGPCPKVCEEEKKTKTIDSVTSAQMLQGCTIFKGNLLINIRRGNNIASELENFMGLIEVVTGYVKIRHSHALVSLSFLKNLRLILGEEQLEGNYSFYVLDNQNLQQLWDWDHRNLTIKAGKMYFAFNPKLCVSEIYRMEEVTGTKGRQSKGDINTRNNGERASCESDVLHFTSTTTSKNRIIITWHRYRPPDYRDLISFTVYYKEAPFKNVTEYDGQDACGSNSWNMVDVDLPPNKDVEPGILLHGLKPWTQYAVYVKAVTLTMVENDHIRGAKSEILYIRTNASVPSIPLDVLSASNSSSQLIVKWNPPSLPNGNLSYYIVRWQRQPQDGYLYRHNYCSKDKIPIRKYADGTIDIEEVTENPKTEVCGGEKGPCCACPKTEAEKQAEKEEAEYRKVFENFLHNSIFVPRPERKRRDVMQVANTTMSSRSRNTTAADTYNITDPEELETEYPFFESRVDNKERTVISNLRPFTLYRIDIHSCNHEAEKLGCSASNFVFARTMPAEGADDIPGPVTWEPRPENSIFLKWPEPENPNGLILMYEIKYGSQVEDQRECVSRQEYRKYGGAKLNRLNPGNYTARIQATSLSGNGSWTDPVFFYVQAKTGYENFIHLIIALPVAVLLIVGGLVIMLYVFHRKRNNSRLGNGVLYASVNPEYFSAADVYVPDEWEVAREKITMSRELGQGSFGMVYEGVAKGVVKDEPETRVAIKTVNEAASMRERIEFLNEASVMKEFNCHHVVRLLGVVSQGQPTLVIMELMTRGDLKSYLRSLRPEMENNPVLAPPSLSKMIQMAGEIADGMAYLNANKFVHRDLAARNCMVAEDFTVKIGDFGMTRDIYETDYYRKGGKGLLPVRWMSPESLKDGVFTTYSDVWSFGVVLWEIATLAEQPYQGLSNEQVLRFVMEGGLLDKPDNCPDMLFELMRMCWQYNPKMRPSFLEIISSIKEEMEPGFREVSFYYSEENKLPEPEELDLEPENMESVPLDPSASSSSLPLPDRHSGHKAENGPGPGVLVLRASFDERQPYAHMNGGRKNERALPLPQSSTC
# [4] = molecular target: T3, Kdr (Homo sapiens, UniProt P35968); assay: Z'-Lyte FRET kinase assay (Invitrogen), Kdr; settings: read-out: IC50, activity toward kinase Kdr
# T3 construct: purchased Invitrogen (assay run by Invitrogen)
# [5] = molecular target: T4, Jnk3 (Homo sapiens, UniProt P53779); assay: AlphaScreen kinase assay, Jnk3; settings: read-out: IC50, activity toward kinase Jnk3
# T4 construct: purchased Upstate Biotechnology
# [6] = molecular target: T5, Ret (Homo sapiens, UniProt P07949); assay: AlphaScreen kinase assay, Ret; settings: read-out: IC50, activity toward kinase Ret
# T5 construct: P1378.pET-SF BI-PTP RET H661-R1012 HIS; made in house
# T5 sequence (P07949 with tags, fused parts or gaps): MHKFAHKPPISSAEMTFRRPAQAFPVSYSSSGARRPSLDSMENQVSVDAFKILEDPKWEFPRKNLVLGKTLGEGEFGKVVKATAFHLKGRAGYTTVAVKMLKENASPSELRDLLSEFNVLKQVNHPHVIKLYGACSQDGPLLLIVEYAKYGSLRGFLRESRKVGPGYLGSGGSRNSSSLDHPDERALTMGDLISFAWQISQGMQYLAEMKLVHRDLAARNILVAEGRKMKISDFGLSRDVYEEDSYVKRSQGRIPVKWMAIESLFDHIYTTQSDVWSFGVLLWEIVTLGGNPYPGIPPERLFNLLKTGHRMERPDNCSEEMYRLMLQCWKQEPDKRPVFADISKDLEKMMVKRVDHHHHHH
# [7] = molecular target: T6, B-Raf V600E (Homo sapiens, UniProt P15056, V600E); assay: AlphaScreen kinase assay, B-Raf V600E; settings: read-out: IC50, activity toward kinase B-Raf V600E
# T6 construct: P4254. pFastBacBD-CDC37 BRAF D437-K722-X, V600E; His6 with pFastBac HT leader (TEV site) (N); made in house; host or cells: Sf9 (baculovirus; chaperone CDC37 co-expressed)
# T6 sequence (P15056 with tags, fused parts or gaps V600E): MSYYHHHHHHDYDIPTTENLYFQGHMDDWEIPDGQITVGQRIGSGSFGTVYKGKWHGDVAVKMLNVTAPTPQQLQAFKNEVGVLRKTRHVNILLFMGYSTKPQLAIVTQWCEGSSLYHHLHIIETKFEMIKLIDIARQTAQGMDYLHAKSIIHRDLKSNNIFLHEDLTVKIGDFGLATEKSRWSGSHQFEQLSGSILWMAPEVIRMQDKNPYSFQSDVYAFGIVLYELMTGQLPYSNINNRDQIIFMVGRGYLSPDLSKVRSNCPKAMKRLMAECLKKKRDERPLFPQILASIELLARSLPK
# [8] = molecular target: T7, Itk (Homo sapiens, UniProt Q08881); assay: AlphaScreen kinase assay, Itk; settings: read-out: IC50, activity toward kinase Itk
# T7 sequence (Q08881 1-620): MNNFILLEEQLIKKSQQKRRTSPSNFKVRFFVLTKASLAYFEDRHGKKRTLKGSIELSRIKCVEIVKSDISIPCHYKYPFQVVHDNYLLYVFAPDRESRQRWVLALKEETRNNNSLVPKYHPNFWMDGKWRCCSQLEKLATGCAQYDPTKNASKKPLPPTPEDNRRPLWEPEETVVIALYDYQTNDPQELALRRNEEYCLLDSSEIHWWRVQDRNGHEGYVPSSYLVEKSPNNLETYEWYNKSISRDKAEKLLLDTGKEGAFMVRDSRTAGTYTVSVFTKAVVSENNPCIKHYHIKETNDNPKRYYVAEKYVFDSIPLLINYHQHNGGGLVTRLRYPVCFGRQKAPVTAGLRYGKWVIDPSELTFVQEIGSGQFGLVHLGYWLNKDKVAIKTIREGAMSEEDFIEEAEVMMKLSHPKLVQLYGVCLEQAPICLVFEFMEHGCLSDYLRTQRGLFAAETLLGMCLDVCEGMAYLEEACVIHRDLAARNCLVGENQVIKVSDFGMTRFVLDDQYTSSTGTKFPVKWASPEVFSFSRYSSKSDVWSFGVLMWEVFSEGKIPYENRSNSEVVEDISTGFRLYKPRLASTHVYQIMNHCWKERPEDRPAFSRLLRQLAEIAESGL
# Excerpt: as §1, §2
# [9] = molecular target: T8, Zap70 (Homo sapiens, UniProt P43403); assay: AlphaScreen kinase assay, Zap70; settings: read-out: IC50, activity toward kinase Zap70
# T8 construct: P1868.pFastBac1 ZAP70 D327-G606 HIS, WT; His7 (HHHHHHH) (C); made in house
# T8 sequence (P43403 with tags, fused parts or gaps): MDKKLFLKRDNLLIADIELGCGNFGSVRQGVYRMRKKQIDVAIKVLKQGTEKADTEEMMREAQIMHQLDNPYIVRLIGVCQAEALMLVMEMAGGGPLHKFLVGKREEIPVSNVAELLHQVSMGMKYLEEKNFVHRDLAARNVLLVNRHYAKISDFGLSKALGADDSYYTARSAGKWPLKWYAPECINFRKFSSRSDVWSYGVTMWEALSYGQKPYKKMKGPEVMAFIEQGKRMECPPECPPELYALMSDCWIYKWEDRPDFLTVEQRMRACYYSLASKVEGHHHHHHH
# Procedure, shortened: (§3)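 Uses phospho-specific antibody on acceptor beads plus streptavidin donor beads capturing biotinylated peptide substrate; singlet oxygen from donor excites nearby acceptor. Inhibitors tested in 8-point, 1:3 titrations starting from 20 mM DMSO solutions.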
# [10] = molecular target: T9, c-Raf-1 (Homo sapiens, UniProt P04049); assay: AlphaScreen kinase assay, c-Raf-1; settings: read-out: IC50, activity toward kinase c-Raf-1
# T9 construct: purchased Upstate Biotechnology
# T9 sequence (P04049 whole entry): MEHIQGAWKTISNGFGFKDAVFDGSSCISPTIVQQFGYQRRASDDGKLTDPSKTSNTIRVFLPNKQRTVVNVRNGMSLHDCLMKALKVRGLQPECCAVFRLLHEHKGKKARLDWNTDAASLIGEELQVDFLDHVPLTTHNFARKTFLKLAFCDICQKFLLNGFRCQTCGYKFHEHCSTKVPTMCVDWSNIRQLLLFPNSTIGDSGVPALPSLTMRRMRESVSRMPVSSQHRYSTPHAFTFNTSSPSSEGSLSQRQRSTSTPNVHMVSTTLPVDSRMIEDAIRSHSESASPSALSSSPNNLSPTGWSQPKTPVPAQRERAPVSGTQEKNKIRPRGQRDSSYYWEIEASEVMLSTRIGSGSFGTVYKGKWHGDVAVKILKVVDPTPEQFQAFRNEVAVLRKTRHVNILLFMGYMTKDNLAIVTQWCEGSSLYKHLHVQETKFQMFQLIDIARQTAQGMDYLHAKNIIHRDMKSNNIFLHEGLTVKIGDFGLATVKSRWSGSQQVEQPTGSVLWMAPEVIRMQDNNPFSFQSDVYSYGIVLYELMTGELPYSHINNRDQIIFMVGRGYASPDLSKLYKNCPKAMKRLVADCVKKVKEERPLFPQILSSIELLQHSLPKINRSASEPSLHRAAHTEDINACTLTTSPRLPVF
# [11] = molecular target: T10, B-Raf (Homo sapiens, UniProt P15056); assay: AlphaScreen kinase assay, B-Raf; settings: read-out: IC50, activity toward kinase B-Raf
# T10 construct: purchased Upstate Biotechnology
# T10 sequence (P15056 whole entry): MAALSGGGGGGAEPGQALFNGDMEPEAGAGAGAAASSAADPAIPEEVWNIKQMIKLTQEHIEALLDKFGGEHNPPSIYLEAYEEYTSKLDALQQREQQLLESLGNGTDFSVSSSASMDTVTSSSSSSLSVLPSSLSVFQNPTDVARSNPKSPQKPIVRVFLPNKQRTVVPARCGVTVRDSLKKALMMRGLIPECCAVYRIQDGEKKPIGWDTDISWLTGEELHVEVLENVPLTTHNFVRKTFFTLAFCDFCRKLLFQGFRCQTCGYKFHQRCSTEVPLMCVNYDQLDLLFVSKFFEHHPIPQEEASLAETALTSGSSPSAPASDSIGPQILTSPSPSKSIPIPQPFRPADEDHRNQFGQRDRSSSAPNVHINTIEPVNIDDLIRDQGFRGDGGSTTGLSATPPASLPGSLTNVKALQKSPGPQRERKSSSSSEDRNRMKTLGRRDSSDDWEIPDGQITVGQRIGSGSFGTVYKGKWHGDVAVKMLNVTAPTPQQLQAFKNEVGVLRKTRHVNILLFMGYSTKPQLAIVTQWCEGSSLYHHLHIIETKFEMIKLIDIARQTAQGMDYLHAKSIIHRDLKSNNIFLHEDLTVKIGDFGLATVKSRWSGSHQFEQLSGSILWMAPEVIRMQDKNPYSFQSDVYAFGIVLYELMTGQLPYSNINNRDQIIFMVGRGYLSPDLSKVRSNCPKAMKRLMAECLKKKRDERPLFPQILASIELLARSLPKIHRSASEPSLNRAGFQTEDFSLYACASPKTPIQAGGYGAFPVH
# [12] = molecular target: T11, Met (Homo sapiens, UniProt P08581); assay: AlphaScreen kinase assay, Met; settings: read-out: IC50, activity toward kinase Met
# T11 construct: P1818.pETN6 BI-PTP MET G1056-G1364-X WT; His6 (N); made in house; host or cells: E. coli (PTP1B co-expressed)
# T11 sequence (P08581 with tags, fused parts or gaps): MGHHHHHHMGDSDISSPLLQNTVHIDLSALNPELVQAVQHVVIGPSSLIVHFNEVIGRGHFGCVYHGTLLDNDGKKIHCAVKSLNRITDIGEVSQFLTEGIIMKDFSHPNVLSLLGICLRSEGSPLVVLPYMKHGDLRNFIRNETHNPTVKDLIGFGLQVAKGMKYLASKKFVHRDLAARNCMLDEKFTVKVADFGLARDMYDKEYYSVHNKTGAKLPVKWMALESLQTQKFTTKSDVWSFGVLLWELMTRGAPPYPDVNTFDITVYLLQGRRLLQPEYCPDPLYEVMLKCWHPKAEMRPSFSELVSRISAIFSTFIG
# Procedure, shortened: as §3
# [13] = molecular target: T12, Kit (Homo sapiens, UniProt P10721); assay: AlphaScreen kinase assay, Kit; settings: read-out: IC50, activity toward kinase Kit
# T12 construct: P1332.N6 BI PTP KIT M552-K948-X COD; His6 (N); made in house; host or cells: E. coli (PTP1B co-expressed)
# T12 sequence (P10721 with tags, fused parts or gaps): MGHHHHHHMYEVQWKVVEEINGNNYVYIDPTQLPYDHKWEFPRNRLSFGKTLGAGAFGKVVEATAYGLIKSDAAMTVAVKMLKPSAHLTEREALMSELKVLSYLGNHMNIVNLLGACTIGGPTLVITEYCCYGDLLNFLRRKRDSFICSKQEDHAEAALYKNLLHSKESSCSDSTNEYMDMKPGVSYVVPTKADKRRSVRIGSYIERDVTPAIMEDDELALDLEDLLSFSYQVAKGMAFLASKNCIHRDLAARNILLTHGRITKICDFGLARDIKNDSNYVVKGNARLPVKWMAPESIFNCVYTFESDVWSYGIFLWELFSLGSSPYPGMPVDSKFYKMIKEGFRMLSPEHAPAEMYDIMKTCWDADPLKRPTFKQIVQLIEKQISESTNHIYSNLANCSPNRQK
# [14] = molecular target: T13, TEC (Homo sapiens, UniProt P42680); assay: AlphaScreen kinase assay, TEC; settings: read-out: IC50, activity toward kinase TEC
# T13 sequence (P42680 1-631): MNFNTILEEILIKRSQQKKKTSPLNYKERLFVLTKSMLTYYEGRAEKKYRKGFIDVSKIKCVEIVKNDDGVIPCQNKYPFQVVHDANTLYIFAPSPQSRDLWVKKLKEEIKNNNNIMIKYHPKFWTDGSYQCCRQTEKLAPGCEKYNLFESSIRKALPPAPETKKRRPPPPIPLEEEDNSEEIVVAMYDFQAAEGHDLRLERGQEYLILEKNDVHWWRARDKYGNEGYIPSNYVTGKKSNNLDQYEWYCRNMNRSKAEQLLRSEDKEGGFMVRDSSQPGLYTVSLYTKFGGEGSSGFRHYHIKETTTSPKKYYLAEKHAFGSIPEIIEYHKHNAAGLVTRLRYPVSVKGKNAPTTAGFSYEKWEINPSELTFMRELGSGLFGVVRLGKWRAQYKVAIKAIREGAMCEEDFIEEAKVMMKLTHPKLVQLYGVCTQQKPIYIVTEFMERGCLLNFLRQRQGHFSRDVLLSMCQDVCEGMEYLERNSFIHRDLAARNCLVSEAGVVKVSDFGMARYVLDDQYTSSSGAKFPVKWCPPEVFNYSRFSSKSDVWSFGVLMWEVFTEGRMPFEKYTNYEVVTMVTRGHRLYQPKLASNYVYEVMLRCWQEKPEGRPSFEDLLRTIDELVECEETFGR
# Excerpt: as §1, §2
# [15] = molecular target: T14, FGFR1 (Homo sapiens, UniProt P11362, C488A/C584S); assay: AlphaScreen kinase assay, FGFR1; settings: read-out: IC50, activity toward kinase FGFR
# T14 construct: P1351.pET N6 BI-PTP FGFR A458-E765-X C488A, C584S; made in house; host or cells: E. coli (PTP1B co-expressed)
# T14 sequence (P11362 458-765 C488A/C584S): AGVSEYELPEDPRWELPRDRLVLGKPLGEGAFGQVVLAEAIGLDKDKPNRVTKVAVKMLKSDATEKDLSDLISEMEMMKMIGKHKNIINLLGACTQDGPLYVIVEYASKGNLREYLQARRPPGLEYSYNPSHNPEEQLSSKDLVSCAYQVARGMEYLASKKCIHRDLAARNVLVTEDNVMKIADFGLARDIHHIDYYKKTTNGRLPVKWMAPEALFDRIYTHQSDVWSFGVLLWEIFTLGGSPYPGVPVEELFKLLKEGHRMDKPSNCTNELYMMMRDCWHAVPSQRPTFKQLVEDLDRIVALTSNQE
# [16] = molecular target: T15, Fms (Homo sapiens, UniProt P07333); assay: AlphaScreen kinase assay, Fms; settings: read-out: IC50, activity toward kinase Fms
# T15 construct: purchased Upstate Biotechnology
# T15 sequence (P07333 20-972): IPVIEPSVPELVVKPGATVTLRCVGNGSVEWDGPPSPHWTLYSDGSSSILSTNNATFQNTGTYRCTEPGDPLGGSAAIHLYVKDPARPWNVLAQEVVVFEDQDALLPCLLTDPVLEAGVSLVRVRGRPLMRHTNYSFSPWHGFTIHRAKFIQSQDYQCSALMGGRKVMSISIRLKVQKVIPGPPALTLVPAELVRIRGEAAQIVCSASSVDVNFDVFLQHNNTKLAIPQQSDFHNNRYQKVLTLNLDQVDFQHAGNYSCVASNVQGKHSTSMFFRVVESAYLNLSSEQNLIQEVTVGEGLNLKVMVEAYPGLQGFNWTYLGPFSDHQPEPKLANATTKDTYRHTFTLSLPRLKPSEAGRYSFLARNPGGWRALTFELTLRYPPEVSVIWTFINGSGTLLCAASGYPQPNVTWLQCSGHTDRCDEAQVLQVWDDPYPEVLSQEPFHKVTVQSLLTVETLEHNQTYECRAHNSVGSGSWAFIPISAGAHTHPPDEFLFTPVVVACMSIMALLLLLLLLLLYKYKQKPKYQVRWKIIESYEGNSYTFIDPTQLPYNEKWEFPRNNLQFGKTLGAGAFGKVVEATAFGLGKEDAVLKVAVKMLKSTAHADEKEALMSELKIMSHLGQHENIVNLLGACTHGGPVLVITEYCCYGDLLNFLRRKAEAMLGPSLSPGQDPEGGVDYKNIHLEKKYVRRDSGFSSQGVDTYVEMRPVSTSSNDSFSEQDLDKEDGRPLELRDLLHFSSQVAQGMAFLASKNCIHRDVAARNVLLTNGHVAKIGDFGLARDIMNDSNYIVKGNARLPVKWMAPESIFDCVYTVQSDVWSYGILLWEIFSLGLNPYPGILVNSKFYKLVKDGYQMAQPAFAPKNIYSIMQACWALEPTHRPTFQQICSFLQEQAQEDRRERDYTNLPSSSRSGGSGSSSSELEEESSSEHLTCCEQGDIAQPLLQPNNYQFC
IC50 [1] [µM],IC50 [2] [µM],IC50 [3] [µM],IC50 [4] [µM],IC50 [5] [µM],IC50 [6] [µM],IC50 [7] [µM],IC50 [8] [µM],IC50 [9] [µM],IC50 [10] [µM],IC50 [11] [µM],IC50 [12] [µM],IC50 [13] [µM],IC50 [14] [µM],IC50 [15] [µM],IC50 [16] [µM],Structure (SMILES)
≤ 10,≤ 10,≤ 10,≤ 10,,,,,,,,,,,,,OCc1cccc(-c2ccnc3[nH]ccc23)c1 [Compound P-0084]
,,≤ 10,,≤ 10,≤ 10,≤ 10,≤ 10,≤ 10,≤ 10,≤ 10,≤ 10,,,,,"CS(=O)(=O)Nc1cccc(-c2cnc3[nH]cc(C(=O)c4cc(O)ccc4F)c3c2)c1 [Compound P-0716, N-{3-[3-(2-Fluoro-5-hydroxy-benzoyl)-1H-pyrrolo[2,3-b]pyridin-5-yl]-phenyl}-methanesulfonamide]"
,,,,,,≤ 10,,,≤ 10,≤ 10,,≤ 10,≤ 10,≤ 10,,"COc1ccc(S(=O)(=O)Nc2ccc(F)c(C(=O)c3c[nH]c4ncc(Cl)cc34)c2F)cc1 [Compound P-0983, N-[3-(5-Chloro-1H-pyrrolo[2,3-b]pyridine-3-carbonyl)-2,4-difluoro-phenyl]-4-methoxy-benzenesulfonamide]"
,,≤ 10,,,,,≤ 10,,,,,,,≤ 10,≤ 10,CS(=O)(=O)Nc1cccc(-c2cnc3[nH]ccc3c2)c1 [Compound P-1337]
